Experimental data published in article PMC7143969, “Simultaneous Determination of α-Glucosidase Inhibitory Triterpenoids in Psidium guajava Using HPLC–DAD–ELSD and Pressurized Liquid Extraction” (Molecules, 2020).
≈ marks a conversion by molar mass, not a printed value.

Molecular target: α-glucosidase (Saccharomyces cerevisiae, UniProt P53341)
Test: Inhibition assay of α-glucosidase activity (p-nitrophenyl α-D-glucopyranoside substrate, absorbance at 405 nm)
Assay type: biochemical
Conditions: Mean ± SE, phosphate buffer pH 6.8, 37 °C, 30 min, NI: No Inhibition
Method: Methanol and formic acid (HPLC grade) were purchased from Merck (Darmstadt, Germany). The ultra-pure water was purified using a Millipore Milli Q-Plus system (Millipore, Bedford, MA, USA). The α-glucosidase and p-nitrophenyl α-D-glucopyranoside were purchased from Sigma (St. Louis, USA). The enzymatic reaction results were detected on a SpectraMax M5 (Molecular Devices, San Jose, CA, USA).
The inhibition assay of α-glucosidase was measured by the method as described previously. Briefly, a total volume of 150 µL solution consisting of 100 µL phosphate buffer (0.1 M, pH 6.8), 20 µL α-glucosidase (2.4 unit/mg), 20 µL p-nitrophenyl α-D-glucopyranoside and 10 µL different concentration of test sample (12.5–500 µg/mL), was incubated for 30 min under the temperature of 37 °C, then the reaction was stopped by adding 80 µL 0.1 mM Na2CO3. The results were detected under the wavelength of 405 nm on a SpectraMax M5 (Molecular Devices, San Jose, CA, USA). The controlled sample used solvent instead of triterpenoids and the blank sample used buffer instead of α-glucosidase, respectively. The inhibition activity α-glucosidase was calculated by the following equation:Inhibition (%) = [1 − (As − Asb)/(Ac − Acb)] × 100%(2)
Herein, As, Asb, Ac and Acb are absorption of the test sample, sample blank, control and control blank, respectively. Their half maximal inhibitory concentration (IC50) were calculated and compared.

α-glucosidase, sequence (P53341 whole entry): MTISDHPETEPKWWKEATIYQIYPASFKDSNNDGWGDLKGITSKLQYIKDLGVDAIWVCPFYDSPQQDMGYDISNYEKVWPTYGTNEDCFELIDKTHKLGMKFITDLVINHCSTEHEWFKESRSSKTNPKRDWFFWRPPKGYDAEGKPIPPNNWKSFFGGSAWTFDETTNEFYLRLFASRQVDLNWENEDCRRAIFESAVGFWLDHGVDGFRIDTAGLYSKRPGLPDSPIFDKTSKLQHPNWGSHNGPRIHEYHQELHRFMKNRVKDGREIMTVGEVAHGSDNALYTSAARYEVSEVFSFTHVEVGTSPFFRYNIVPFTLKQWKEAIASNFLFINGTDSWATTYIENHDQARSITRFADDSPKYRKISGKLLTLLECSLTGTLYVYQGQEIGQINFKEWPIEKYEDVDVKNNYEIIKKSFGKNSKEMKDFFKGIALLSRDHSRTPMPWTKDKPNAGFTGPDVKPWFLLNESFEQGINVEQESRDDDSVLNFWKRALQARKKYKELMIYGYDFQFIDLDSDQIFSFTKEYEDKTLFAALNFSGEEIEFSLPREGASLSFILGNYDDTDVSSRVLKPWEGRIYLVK

C[C@H]1[C@H](C)CC[C@]2(C(=O)O)CC[C@]3(C)C(=CC[C@@H]4[C@@]5(C)C[C@@H](O)[C@H](OC(=O)/C=C\c6ccc(O)cc6)C(C)(C)[C@@H]5CC[C@]43C)[C@H]12 (relative stereo) [Compound 5, 3β-O-cis-p-coumaroyl-2α-hydroxy-urs-12-en-28-oic acid]
IC50 (n = 3) against α-Glucosidase: 1.54 ± 0.15 µg/mL (≈ 2.49 µM)

C[C@H]1[C@H](C)CC[C@]2(C(=O)O)CC[C@]3(C)C(=CCC4[C@@]5(C)C[C@@H](O)[C@H](OC(=O)/C=C/c6ccc(O)cc6)C(C)(C)C5CC[C@]43C)[C@H]12 (relative stereo) [Compound 7, 3β-O-trans-p-coumaroyl-2α-hydroxy-urs-12-en-28-oic acid]
IC50 (n = 3) against α-Glucosidase: 2.12 ± 0.15 µg/mL (≈ 3.43 µM)

C[C@H]1[C@H](C)CC[C@]2(C(=O)O)CC[C@]3(C)C(=CC[C@@H]4[C@@]5(C)C[C@@H](O)[C@H](O)[C@@](C)(CO)[C@@H]5CC[C@]43C)[C@H]12 [Compound 1, asiatic acid]
IC50 (n = 3) against α-Glucosidase: no inhibition activity

CC1(C)CCC2(C(=O)O)CCC3(C)C(=CCC4C5(C)CC(O)C(OC(=O)C=Cc6ccc(O)cc6)C(C)(C)C5CCC43C)C2C1 (stereo not drawn) [Compound 4, 3β-O-cis-p-coumaroyl-2α-hydroxy-olean-12-en-28-oic acid]
IC50 (n = 3) against α-Glucosidase: 2.25 ± 0.28 µg/mL (≈ 3.64 µM)

CC1(C)CCC2(C(=O)O)CCC3(C)C(=CCC4C5(C)CC(O)C(OC(=O)C=Cc6ccc(O)cc6)C(C)(C)C5CCC43C)C2C1 (stereo not drawn) [Compound 6, 3β-O-trans-p-coumaroyl-2α-hydroxy-olean-12-en-28-oic acid]
IC50 (n = 3) against α-Glucosidase: 1.93 ± 0.14 µg/mL (≈ 3.12 µM)
